# Test results from ChEMBL document CHEMBL1201862, “PubChem BioAssay data set” (2004).
# Calls of active or inactive are those of the source.
# Tests used:
# [1] = viability of PTEN-deleted HCT116 cells – cell-based, HCT116 PTEN knockout, dose response (AID 1047); assay type: functional;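 note: HCT116 colon tumor cells with PTEN knocked out; cells exposed to compound for 60 hours before readout; potency for loss of cell viability measured by luminescence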
# [2] = viability of HCT116 lacking mutant beta-catenin – cell-based, human colon tumor, dose response (AID 1045); assay type: functional;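 note: HCT116 colon tumor cells with beta catenin knocked out; cells exposed to compound for 60 hours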
# Genome polyprotein = Genome polyprotein (dengue virus type 2, UniProt P29990); test: flavivirus cap methylation enzyme inhibition – biochemical, confirmation dose response, primary screen (AID 588689); assay type: functional
# Genome polyprotein, sequence (P29990 2492-3391 limits assumed): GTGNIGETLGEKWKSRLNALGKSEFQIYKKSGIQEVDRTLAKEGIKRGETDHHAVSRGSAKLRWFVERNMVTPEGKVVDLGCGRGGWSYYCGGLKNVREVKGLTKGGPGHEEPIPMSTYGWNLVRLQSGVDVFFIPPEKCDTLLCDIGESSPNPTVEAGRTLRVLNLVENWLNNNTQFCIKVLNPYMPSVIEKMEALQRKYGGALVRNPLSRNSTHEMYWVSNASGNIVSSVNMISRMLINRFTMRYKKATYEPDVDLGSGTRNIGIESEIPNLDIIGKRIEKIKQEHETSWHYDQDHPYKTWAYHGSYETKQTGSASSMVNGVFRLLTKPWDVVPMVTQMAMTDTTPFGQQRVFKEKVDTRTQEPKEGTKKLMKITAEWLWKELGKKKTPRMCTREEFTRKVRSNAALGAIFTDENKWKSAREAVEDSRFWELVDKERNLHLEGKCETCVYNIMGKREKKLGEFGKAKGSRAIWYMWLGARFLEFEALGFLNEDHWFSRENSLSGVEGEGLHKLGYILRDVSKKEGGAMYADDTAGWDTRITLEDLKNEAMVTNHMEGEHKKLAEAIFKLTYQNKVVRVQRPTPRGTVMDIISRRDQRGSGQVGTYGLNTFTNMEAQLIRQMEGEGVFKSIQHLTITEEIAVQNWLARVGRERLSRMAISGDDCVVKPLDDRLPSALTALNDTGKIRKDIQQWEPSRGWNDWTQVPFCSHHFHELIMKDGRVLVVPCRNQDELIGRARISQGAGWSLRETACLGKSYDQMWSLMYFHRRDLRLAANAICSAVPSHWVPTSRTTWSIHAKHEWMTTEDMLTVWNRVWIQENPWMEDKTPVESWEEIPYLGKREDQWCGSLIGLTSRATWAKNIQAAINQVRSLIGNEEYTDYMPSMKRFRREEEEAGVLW
# Cytochrome P450 1A2 = target: T1, Cytochrome P450 1A2 (Homo sapiens, UniProt P05177);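 note: PubChem cytochrome P450 panel assay, CYP1A2 panel member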
# T1 sequence (P05177 whole entry): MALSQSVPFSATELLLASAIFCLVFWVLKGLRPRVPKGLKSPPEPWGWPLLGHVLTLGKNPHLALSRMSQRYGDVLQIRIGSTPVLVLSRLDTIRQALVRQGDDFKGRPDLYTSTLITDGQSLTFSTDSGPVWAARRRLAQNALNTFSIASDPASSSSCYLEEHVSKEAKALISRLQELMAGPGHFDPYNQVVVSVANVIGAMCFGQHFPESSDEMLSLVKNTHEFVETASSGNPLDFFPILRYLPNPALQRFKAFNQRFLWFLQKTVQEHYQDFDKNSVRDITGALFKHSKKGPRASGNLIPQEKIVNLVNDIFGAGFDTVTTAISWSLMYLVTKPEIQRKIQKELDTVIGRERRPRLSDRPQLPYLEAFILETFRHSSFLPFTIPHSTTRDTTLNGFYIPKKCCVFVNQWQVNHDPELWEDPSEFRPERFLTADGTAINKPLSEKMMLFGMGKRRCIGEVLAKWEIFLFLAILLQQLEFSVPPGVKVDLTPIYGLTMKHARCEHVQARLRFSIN
# Cytochrome P450 2C9 = Cytochrome P450 2C9 (Homo sapiens, UniProt P11712)
# Cytochrome P450 2C9, sequence (P11712 whole entry): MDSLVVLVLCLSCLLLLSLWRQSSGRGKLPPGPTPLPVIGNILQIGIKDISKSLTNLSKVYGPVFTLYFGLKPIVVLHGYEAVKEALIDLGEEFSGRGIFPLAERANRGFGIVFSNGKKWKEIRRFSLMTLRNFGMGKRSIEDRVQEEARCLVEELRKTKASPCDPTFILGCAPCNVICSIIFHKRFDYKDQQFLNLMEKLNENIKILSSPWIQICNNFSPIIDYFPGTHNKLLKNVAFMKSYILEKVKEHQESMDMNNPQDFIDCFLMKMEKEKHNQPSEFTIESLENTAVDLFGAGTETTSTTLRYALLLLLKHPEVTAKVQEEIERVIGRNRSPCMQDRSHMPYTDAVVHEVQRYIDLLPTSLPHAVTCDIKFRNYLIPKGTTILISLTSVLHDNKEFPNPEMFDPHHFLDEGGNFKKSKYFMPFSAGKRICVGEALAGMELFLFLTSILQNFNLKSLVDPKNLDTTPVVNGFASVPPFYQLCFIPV
# [3] = Vero E6 cell cytotoxicity, dose response, cytotoxicity control for non-replicating M. tuberculosis project, secondary assay (AID 492998); assay type: functional, VeroE6; conditions: Vero C1008
# [4] = THP-1 cell cytotoxicity, dose response, cytotoxicity control for non-replicating M. tuberculosis project (AID 489025); assay type: functional
# cells = assay type: functional
# [5] = target: Luciferin 4-monooxygenase (Photinus pyralis, UniProt P08659); test: inhibition of purified Photinus pyralis luciferase – biochemical, luminescence, dose response (AID 1891)
# Luciferin 4-monooxygenase, sequence (P08659 whole entry): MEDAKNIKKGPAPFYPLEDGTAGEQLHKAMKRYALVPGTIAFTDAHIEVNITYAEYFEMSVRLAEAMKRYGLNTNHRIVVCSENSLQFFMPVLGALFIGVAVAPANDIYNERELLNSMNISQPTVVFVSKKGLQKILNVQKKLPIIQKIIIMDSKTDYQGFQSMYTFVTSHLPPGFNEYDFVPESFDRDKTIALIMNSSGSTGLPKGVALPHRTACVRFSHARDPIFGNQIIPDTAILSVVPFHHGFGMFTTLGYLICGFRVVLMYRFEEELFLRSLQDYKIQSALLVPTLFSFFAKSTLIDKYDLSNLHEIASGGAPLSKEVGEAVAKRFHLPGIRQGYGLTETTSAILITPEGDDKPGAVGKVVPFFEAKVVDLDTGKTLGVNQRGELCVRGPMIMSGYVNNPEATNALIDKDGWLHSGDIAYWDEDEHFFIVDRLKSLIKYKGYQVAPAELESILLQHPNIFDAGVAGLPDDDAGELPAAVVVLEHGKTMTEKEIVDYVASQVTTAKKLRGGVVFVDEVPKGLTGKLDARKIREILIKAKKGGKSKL
# [6] = Luminescence Cell-Based Dose Confirmation HTS to Identify Inhibitors of Platelet Dense Granule Release. [Related pubchem assays: 1663 (Primary HTS), 1678 (Summary of Project)]; assay type: functional
# [7] = target: T2, Corticotropin-releasing factor receptor 2/Corticotropin-releasing factor-binding protein (Homo sapiens, UniProt P24387+Q13324); test: activators of CRF receptor 2 with binding protein – uHTS hits, confirmation (AID 602473); assay type: functional; conditions: read-out: EC50_Mean
# T2 sequence (Q13324 whole entry): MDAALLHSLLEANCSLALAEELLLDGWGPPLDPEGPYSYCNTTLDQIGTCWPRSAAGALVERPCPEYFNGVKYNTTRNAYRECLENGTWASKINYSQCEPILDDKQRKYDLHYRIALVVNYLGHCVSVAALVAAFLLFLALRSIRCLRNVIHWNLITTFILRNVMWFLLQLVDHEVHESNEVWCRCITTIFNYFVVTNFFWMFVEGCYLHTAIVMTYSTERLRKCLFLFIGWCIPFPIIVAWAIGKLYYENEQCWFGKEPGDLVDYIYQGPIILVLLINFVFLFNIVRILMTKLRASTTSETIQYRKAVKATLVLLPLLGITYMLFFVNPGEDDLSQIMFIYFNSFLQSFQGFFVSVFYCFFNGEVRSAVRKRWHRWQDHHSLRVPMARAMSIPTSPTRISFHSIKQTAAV
# T2 sequence (P24387 whole entry): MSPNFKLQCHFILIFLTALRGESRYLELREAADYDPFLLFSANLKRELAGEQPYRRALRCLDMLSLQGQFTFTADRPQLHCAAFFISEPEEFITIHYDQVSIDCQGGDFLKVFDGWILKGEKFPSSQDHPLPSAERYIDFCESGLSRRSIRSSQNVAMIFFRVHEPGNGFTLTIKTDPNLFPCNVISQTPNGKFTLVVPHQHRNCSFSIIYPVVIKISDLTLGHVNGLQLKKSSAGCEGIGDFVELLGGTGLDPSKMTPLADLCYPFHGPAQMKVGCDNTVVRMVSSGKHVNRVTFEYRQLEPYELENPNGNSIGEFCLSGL
# [8] = target: T2, Corticotropin-releasing factor receptor 2/Corticotropin-releasing factor-binding protein; test: Dose Response confirmation of uHTS hits for small molecule antagonists of the CRF-binding protein and CRF-R2 receptor complex.; assay type: functional; conditions: read-out: IC50_Mean
# Streptococcus = test: GAS UMAA2166 growth inhibition – luminescence, BacTiterGlo, counter-screen for streptokinase expression inhibitor project, dose response (AID 1915); assay type: functional, organism-based; conditions: Streptococcus;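 note: potency for reduction of bacterial viability or growth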
# [9] = test system: Streptococcus sp. 'group A'; test: Streptococcus pyogenes SK(-)GAS viability under kanamycin – luminescence, BacTiterGlo, confirmation, counter-screen for streptokinase expression inhibitor project, dose response (AID 1900); assay type: functional, organism-based; conditions: Streptococcus sp. 'group A'
# [10] = Trypanosoma cruzi growth suppression in host cells – NIH3T3 host cells, beta-gal luminescence, confirmation (AID 2044); assay type: functional, cell-based;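 note: intracellular parasites grown in NIH/3T3 mouse fibroblasts as host cells; luminescent beta-galactosidase reporter signal from transgenic T. cruzi replicating inside host cells; inhibitors lower the luminescence signal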
# [11] = NIH3T3 cell viability loss – ATP luminescence, mouse fibroblasts, counter-screen, dose response (AID 2010); assay type: functional, cell-based; conditions: NIH3T3;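 note: cells exposed to compound for about 90 hours before reading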
# Cytochrome P450 2D6 = Cytochrome P450 2D6 (Homo sapiens, UniProt P10635);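 note: CYP2D6 member of a cytochrome P450 panel assay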
# Cytochrome P450 2D6, sequence (P10635 whole entry): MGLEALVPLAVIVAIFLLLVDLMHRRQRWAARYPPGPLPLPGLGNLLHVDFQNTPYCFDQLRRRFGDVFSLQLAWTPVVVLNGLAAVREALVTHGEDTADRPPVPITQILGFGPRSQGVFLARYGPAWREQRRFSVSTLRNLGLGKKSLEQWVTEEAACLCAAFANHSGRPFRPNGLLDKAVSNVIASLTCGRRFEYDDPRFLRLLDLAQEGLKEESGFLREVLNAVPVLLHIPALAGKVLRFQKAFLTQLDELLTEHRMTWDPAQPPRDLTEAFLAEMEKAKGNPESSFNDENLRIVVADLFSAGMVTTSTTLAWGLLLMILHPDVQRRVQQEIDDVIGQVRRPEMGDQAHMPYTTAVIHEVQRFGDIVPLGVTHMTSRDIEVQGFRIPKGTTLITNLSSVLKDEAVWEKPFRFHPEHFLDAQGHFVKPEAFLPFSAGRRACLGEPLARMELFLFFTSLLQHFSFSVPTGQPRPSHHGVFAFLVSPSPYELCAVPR
# Protein skinhead-1 = target: T3, Protein skinhead-1 (Caenorhabditis elegans, UniProt P34707); assay type: functional
# T3 sequence (P34707 whole entry): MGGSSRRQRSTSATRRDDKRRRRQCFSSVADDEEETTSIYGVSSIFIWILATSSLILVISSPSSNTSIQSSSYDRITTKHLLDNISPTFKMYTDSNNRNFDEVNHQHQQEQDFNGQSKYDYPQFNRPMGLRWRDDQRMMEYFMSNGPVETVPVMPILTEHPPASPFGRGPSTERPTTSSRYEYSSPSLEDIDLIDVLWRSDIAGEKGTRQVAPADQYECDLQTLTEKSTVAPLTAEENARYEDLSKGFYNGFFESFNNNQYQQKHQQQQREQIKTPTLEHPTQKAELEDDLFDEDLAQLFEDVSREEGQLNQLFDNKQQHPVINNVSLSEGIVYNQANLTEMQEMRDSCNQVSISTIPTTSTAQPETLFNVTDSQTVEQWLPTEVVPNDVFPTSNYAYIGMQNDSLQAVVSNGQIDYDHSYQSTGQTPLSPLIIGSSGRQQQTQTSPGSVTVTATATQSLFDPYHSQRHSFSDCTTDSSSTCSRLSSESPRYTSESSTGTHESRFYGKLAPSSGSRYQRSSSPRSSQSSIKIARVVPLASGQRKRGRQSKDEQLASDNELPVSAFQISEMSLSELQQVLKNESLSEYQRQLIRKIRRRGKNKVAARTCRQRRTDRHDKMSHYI
# SN12K1 = test: cells; assay type: functional; conditions: Homo sapiens
# P388 = test: cells; assay type: functional; conditions: Mus musculus
# P388/ADR = test: cells; assay type: functional; conditions: Mus musculus
# Cytochrome P450 2C19 = Cytochrome P450 2C19 (Homo sapiens, UniProt P33261); test: Cytochrome panel assay with activity outcomes. Panel member name: p450-cyp2c19 Compounds with AC50 equal or less than 10 uM are considered active; assay type: functional; conditions: read-out: AC50
# Cytochrome P450 2C19, sequence (P33261 whole entry): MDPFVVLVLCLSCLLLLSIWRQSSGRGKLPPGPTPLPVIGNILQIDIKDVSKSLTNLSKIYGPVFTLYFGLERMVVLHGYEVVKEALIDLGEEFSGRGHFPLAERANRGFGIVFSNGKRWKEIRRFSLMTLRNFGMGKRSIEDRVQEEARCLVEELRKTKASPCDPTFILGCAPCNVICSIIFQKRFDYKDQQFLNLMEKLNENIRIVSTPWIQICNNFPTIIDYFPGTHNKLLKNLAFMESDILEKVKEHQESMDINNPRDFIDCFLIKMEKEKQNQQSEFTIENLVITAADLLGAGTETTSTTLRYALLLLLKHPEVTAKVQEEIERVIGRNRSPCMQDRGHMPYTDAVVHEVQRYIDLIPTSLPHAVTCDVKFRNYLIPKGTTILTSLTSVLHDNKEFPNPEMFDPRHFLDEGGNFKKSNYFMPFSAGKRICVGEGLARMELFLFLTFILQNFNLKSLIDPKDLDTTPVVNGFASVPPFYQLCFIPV
# [12] = Luminescence Cell-Based Dose Retest to Confirm Inhibitors of Cancer Stem Cells. [Related pubchem assays (depositor defined):AID2717, AID2721]; assay type: functional, Homo sapiens; conditions: Homo sapiens
smiles,measurement,setting,value
CCc1ccc(NC(=O)CSc2nc3cc(C(=O)OC)ccc3c(=O)n2CC2CCCO2)cc1 (stereo unspecified),EC50,[1],27.4 µM (active)
same,EC50,[2],25.2 µM (active)
O=C(O)CN1C(=O)/C(=C\c2cccc(OCc3ccc(Cl)cc3)c2)SC1=S,IC50,Genome polyprotein,39.5 µM (active)
FC(F)(F)c1ccccc1-c1ccc2ncnc(NC3CCNCC3)c2c1,AC50,Cytochrome P450 1A2,20 µM (inconclusive)
same,AC50,Cytochrome P450 2C9,inconclusive
Cc1noc(C)c1-c1cc(NCc2cccnc2)ncn1,AC50,Cytochrome P450 2C9,inconclusive
C[C@H](NC(=O)c1[nH]cnc1C(=O)Nc1ccccc1)C(=O)OC(C)(C)C,CC50,[3],> 20 µM (active)
same,CC50,[4],> 40 µM (active)
same,IC50,cells,8.07 µM (active)
CN(C(=O)Cn1nnc(-c2cccc(C(F)(F)F)c2)n1)C1CCCCC1,EC50,[5],> 112 µM (not active)
same,EC50,[6],> 112 µM (not active)
same,AC50,Cytochrome P450 2C9,inconclusive
c1csc(-c2nc3nc4ccccc4nc3n2Cc2ccc3c(c2)OCO3)c1,EC50,[1],48.7 µM (active)
same,EC50,[2],45.5 µM (active)
Cc1ncsc1C(=O)N1CCCC(C(=O)c2ccc3ccccc3c2)C1 (stereo unspecified),EC50,[7],> 53 µM (inactive)
same,IC50,[8],> 47.1 µM (inactive)
O=C1COc2ccccc2CN1,AC50,Cytochrome P450 2C9,inconclusive
CC(C)Cn1cc(C(=O)N2CCC(C)CC2)c2c3ccccc3n(C)c2c1=O,EC50,[7],> 53 µM (inactive)
same,IC50,[8],> 47.1 µM (inactive)
COC(=O)c1ccc(Cl)c(NC(=O)c2ccc(-c3ccccc3)cc2)c1,AC50,Cytochrome P450 2C9,inconclusive
Cc1ccn2c(NC3CCCC3)c(-c3ccccn3)nc2c1,CC50,[3],10.1 µM (active)
same,EC50,Streptococcus,13.3 µM (active)
same,CC50,[4],17.5 µM (active)
same,EC50,[9],3.14 µM (active)
same,EC50,[10],2.06 µM (active)
same,IC50,cells,4.71 µM (active)
same,EC50,[11],> 60 µM (not active)
CN(CC(=O)Nc1cccc2c1CCCC2)S(=O)(=O)c1ccc(Br)cc1,AC50,Cytochrome P450 1A2,10 µM (inconclusive)
same,AC50,Cytochrome P450 2C9,inconclusive
same,AC50,Cytochrome P450 2D6,3.16 µM (inconclusive)
CCOC(=O)c1c(C)[nH]c(C(=O)COC(=O)c2oc3ccc(OC)cc3c2C)c1C,IC50,Protein skinhead-1,> 100 µM (inactive)
Cc1ccccc1CN1C(=O)C(O)(CC(=O)c2ccncc2)c2ccccc21 (stereo unspecified),EC50,[1],7.98 µM (active)
same,EC50,[2],9.54 µM (active)
CC(Sc1nc(-c2ccccc2)cc(C(F)(F)F)n1)C(=O)Nc1ccc2c(c1)OCO2 (stereo unspecified),EC50,[1],19.3 µM (active)
same,EC50,[2],24.6 µM (active)
O=c1[nH]c2ccc(Cl)cc2[nH]1,EC50,[7],> 53 µM (inactive)
same,IC50,[8],> 47.1 µM (inactive)
COc1ccc([N+](=O)[O-])cc1NC(=O)C(C)OC(=O)CSC(C)C(=O)Nc1cc(C)on1 (stereo unspecified),IC50,Protein skinhead-1,> 100 µM (inactive)
CN(C)CCCNC(=O)C[C@H]1C[C@H](C(=O)N2CCOCC2)[C@@]2(C)c3[nH]c4ccc(Cl)cc4c3CCN2C1=O,EC50,[7],> 53 µM (inactive)
same,IC50,[8],> 47.1 µM (inactive)
COC(=O)C1=C(C)N=c2s/c(=C/c3cccs3)c(=O)n2C1c1ccc(F)cc1 (stereo unspecified),IC50,Protein skinhead-1,> 100 µM (inactive)
C(=N/NC1=NCCN1)/c1c2ccccc2c(/C=N\NC2=NCCN2)c2ccccc12,GI50,SN12K1,0.0284 µM (active)
same,GI50,P388,0.000861 µM (active)
same,GI50,P388/ADR,14.6 µM (inactive)
CCC1=CC2CN3CCc4c([nH]c5ccccc45)C(C(=O)OC)(C2)C13 (stereo unspecified),GI50,SN12K1,17.7 µM (inactive)
same,GI50,P388,21 µM (inactive)
same,GI50,P388/ADR,30.1 µM (inactive)
O=C(/N=C1/N=C2C=CC(Br)=CN2Cc2ccccc21)c1ccc([N+](=O)[O-])cc1[N+](=O)[O-],IC50,Protein skinhead-1,28.3 µM (active)
same,EC50,[10],1.39 µM (active)
same,EC50,[11],> 60 µM (not active)
NC1=NC(c2ccccc2)CC(c2cc(Cl)cc(Br)c2O)=N1 (stereo unspecified),GI50,SN12K1,13.6 µM (inactive)
same,GI50,P388,2.9 µM (inactive)
same,GI50,P388/ADR,3.87 µM (inactive)
Cc1cccc(C)c1NC(=O)Cc1cccs1,EC50,[7],> 53 µM (inactive)
same,IC50,[8],> 47.1 µM (inactive)
COc1cccc2c1C(=O)c1c(O)c3c(c(O)c1C2=O)C[C@](O)(C(=O)CO)CC3OC1CC(N)C(OC2CCCCO2)C(C)O1 (stereo partly specified),GI50,SN12K1,< 0.01 µM (active)
same,GI50,P388,< 0.01 µM (active)
same,GI50,P388/ADR,3.14 µM (inactive)
Nc1ncnc2c(C3OC(CO)C(O)C3O)n[nH]c12 (stereo unspecified),GI50,SN12K1,0.176 µM (active)
same,GI50,P388,10.2 µM (inactive)
same,GI50,P388/ADR,5.6 µM (inactive)
CCOC(=O)C(/C=N/c1ncccc1C)=C(/O)OCC,AC50,Cytochrome P450 2C9,inconclusive
Cc1cc(C(=O)N/N=C/c2cccc([N+](=O)[O-])c2)c(C)o1,AC50,Cytochrome P450 2C19,22.4 µM (inconclusive)
same,AC50,Cytochrome P450 2C9,inconclusive
Clc1ccc2c(N/N=C/c3ccc(Br)cc3)ccnc2c1,AC50,[12],3.79 µM (active)
same,EC50,Streptococcus,3.89 µM (active)
same,EC50,[1],15.5 µM (active)
same,EC50,[2],9.32 µM (active)
same,EC50,[9],2.54 µM (active)
COc1ccc(/C=C\c2cc(OC)c(OC)c(OC)c2)c(O)c1O [COMBRETASTATIN A-1],GI50,SN12K1,0.05 µM (active)
same,GI50,P388,0.0525 µM (active)
same,GI50,P388/ADR,0.139 µM (active)
NC(=O)NO [HYDROXYUREA],GI50,SN12K1,173 µM (inactive)
same,GI50,P388,69.8 µM (inactive)
same,GI50,P388/ADR,59.3 µM (inactive)
O=C(O)Cc1cccc2c(=O)cc(-c3ccccc3)oc12 [MITOFLAXONE],GI50,SN12K1,> 250 µM (inactive)
same,GI50,P388,93.8 µM (inactive)
same,GI50,P388/ADR,> 79.3 µM (inactive)
O=C1NC2(CCCCC2)C(=O)N1CCN(CCCl)CCCl [SPIROMUSTINE],GI50,SN12K1,132 µM (inactive)
same,GI50,P388,30.2 µM (inactive)
same,GI50,P388/ADR,29.6 µM (inactive)
